Results as given in patent US11713338B2, “Cyclic peptides multimers targeting α-4-β-7 integrin” (priority 2016, dated 2023).
Read-outs that look alike come from different tables or passages of the source.

Molecular target: T1, integrin α4β7 on α4β7+ memory T helper cells (Homo sapiens, UniProt P13612+P26010)
T1 construct: endogenous in cells
T1 sequence (P13612 34-1032): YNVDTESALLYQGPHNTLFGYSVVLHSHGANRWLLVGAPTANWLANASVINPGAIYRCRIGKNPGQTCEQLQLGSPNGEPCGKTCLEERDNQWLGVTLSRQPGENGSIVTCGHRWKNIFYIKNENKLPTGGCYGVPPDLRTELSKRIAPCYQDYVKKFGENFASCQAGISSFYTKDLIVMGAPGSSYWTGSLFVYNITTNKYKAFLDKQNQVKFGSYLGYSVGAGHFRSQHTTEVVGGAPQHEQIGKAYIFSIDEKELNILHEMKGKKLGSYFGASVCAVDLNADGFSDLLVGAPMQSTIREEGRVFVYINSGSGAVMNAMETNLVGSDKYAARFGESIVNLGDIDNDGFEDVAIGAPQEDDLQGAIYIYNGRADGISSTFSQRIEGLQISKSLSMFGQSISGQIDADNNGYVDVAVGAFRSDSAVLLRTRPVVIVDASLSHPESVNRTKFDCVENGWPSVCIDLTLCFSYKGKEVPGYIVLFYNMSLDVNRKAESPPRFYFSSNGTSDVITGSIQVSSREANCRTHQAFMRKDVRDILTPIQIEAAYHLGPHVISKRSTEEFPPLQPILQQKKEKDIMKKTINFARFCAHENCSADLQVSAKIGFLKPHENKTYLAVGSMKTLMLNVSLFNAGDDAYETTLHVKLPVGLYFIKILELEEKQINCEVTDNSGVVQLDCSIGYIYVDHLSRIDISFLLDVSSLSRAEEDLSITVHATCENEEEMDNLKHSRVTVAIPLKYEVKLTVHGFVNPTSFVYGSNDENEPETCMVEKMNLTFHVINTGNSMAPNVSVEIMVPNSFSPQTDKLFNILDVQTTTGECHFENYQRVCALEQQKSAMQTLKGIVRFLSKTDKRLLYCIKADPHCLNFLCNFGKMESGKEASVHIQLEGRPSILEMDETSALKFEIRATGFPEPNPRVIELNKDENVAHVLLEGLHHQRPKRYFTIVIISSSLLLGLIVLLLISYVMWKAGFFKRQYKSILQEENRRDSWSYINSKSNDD
T1 sequence (P26010 20-798): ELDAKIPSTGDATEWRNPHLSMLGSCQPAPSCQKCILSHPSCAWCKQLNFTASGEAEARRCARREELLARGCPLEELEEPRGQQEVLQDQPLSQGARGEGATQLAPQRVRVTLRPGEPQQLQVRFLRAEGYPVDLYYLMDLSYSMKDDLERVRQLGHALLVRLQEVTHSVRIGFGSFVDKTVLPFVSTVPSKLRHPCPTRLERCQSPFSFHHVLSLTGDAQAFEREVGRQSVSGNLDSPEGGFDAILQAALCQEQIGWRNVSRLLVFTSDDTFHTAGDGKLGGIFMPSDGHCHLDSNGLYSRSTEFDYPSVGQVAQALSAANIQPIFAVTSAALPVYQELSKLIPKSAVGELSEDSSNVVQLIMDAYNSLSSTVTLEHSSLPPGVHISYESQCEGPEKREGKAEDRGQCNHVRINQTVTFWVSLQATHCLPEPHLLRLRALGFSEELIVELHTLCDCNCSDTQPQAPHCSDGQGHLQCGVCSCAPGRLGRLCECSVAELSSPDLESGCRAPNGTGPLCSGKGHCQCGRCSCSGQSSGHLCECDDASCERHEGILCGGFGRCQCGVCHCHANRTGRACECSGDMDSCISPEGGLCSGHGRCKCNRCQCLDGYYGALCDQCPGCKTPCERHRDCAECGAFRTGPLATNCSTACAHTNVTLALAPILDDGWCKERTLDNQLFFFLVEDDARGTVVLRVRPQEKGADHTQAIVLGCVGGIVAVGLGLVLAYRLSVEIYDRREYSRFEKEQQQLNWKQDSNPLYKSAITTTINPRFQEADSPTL
Assay: MAdCAM-1 competition / receptor occupancy assay in human whole blood, α4β7-positive Th memory cells
Assay type: cell-based
Conditions: human whole blood; for IC50: inhibition of MAdCAM-1 binding to α4β7-positive Th memory cells, FACS
Experimental: Analyte Competition Assay in CD4+ Integrin α4+β7-Lo Memory T Cells
Receptor occupancy in primary cells was determined by measuring the amount of biotinylated human recombinant MAdCAM-1-FC or human recombinant VCAM-1-Fc bound to selected cell populations using flow cytometry. Human recombinant MAdCAM-1-FC or human recombinant VCAM-1-FC (R&D systems) were biotinylated using commercially available reagents and protocol (Pierce).
Whole blood was collected from human donors in sodium heparin tubes. […] Cells were washed twice with 1 mL of 1X DPBS calcium magnesium free (CMF) (ThermoFisher Scientific) and resuspended in 100 microL of DPBS CMF.
Biotinylated human recombinant MAdCAM-1-Fc or VCAM-1-Fc were added at saturating concentration and incubated at room temperature for 1 hour. […] Cells were washed with 1 mL stain buffer-FBS (BD Biosciences) and resuspended in 100 μl stain Buffer-FBS (BD Biosciences) containing 4 mM MnCl2. […] Cells were then washed with 1 mL stain buffer-FBS and resuspended in […] stain buffer-FBS. The cells were incubated in the dark for 30 minutes at room temperature with 1 ul Streptavidin APC (Biolegend 0.2 mg/ml) and a panel of antibodies for the detection of memory T helper a4b7-positive cells subset. And amount of 5.0 ul each of the following antibodies were used; CD45 FITC (BioLegend 200 ug/ml), CD29 APC Cy7 (BioLegend 100 ug/ml), Integrin beta7 PE, (BioLegend concentration 50 μg/mL), CD49d V421 (BioLegend 50 μg/mL), CD3 V510 (BioLegend 30 μg/mL), CD4 PECy7 (BioLegend 100 μg/mL), CD45RO PerCP, BioLegend 200 μg/mL). The cells were then washed with stain-buffer-FBS and resuspended in 150 microL stain buffer-FBS for acquisition on the flow cytometer (BD FACSCanto™ flow cytometer and BDFACSDiva™ software). FACS data was acquire by electronic gating on the basis of forward versus side scatter, The cytometer was set to collect 20,000 events in each tube. Cell population were determined using the following markers, CD45+, CD3+, CD4+, CD45RO+, CD49d+, integrin b7, biotinylated ligands.
Compound receptor occupancy was defined as the decrease in the number of integrin β7+ or integrin β7-lo cells binding biotinylated rhMAdCAM-1 or rhVCAM-1, respectively.
Receptor occupancy was calculated with the following equation: 100−((% ligand-positive cells with compound/% ligand-positive cells DMSO)*100) In Vivo T Lymphocyte Trafficking Analysis in Mouse Model of Colitis

[1] = read-out: MADCAM FACS α4β7 Th mem

Row | Compound | IC50 [1] | receptor occupancy at 1 µM (1000 nM, read-out: receptor occupancy at maximum concentration) | IC50 (read-out: MADCAM FACS a4b7 Th mem)
1 | CC(C)C[C@@H]1NC(=O)C[C@H](CCCCN)N(C)C(=O)[C@H](CCCCNC(=O)CCOCCOCCOCCOCCOCCOCCOCCC(=O)NCCCC[C@@H]2NC(=O)[C@@H]3CCCN3[C@H](C(=O)NC(C)(C)C)[C@H](C)NC(=O)[C@H]([C@@H](C)O)NC(=O)[C@H](CC(=O)O)NC(=O)[C@H](CC(C)C)NC(=O)C[C@H](CCCCN)N(C)C2=O)NC(=O)[C@@H]2CCCN2[C@H](C(=O)NC(C)(C)C)[C@H](C)NC(=O)[C@H]([C@@H](C)O)NC(=O)[C@H](CC(=O)O)NC1=O [Compound 536] | 75 nM |  | 
2 | COc1cc(C(=O)N2CCN(c3ccc(-c4ccc5cc4CNC(=O)[C@@H]4CCCN4[C@H](C(=O)NC(C)(C)C)[C@H](C)NC(=O)[C@H]([C@@H](C)O)NC(=O)[C@H](CC(=O)O)NC(=O)[C@H](CC(C)C)NC5=O)cc3)CC2)cc(-c2ccc(C(=O)N3CCN(c4ccc(-c5ccc6cc5CNC(=O)[C@@H]5CCCN5[C@H](C(=O)NC(C)(C)C)[C@H](C)NC(=O)[C@H]([C@@H](C)O)NC(=O)[C@H](CC(=O)O)NC(=O)[C@H](CC(C)C)NC6=O)cc4)CC3)cc2F)c1 [Compound 464] | 232 nM |  | 
3 | CC(C)C[C@@H]1NC(=O)c2ccc(-c3ccc(N4CCN(CC(=O)N5CCN(c6ccc(-c7ccc8cc7CNC(=O)[C@@H]7CCCN7[C@H](C(=O)NC(C)(C)C)[C@H](C)NC(=O)[C@H]([C@@H](C)O)NC(=O)[C@H](CC(=O)O)NC(=O)[C@H](CC(C)C)NC8=O)cc6)CC5)CC4)cc3)c(c2)CNC(=O)[C@@H]2CCCN2[C@H](C(=O)NC(C)(C)C)[C@H](C)NC(=O)[C@H]([C@@H](C)O)NC(=O)[C@H](CC(=O)O)NC1=O [Compound 481] | 67 nM |  | 
4 | CC(C)C[C@@H]1NC(=O)c2ccc(-c3ccc(N4CCN(C(=O)[C@H]5CCC[C@H]5C(=O)N5CCN(c6ccc(-c7ccc8cc7CNC(=O)[C@@H]7CCCN7[C@H](C(=O)NC(C)(C)C)[C@H](C)NC(=O)[C@H]([C@@H](C)O)NC(=O)[C@H](CC(=O)O)NC(=O)[C@H](CC(C)C)NC8=O)cc6)CC5)CC4)cc3)c(c2)CNC(=O)[C@@H]2CCCN2[C@H](C(=O)NC(C)(C)C)[C@H](C)NC(=O)[C@H]([C@@H](C)O)NC(=O)[C@H](CC(=O)O)NC1=O [Compound 458] | 66 nM |  | 
5 | CC(C)C[C@@H]1NC(=O)c2ccc(-c3ccc(N4CCN(Cc5cccc(CN6CCN(c7ccc(-c8ccc9cc8CNC(=O)[C@@H]8CCCN8[C@H](C(=O)NC(C)(C)C)[C@H](C)NC(=O)[C@H]([C@@H](C)O)NC(=O)[C@H](CC(=O)O)NC(=O)[C@H](CC(C)C)NC9=O)cc7)CC6)c5)CC4)cc3)c(c2)CNC(=O)[C@@H]2CCCN2[C@H](C(=O)NC(C)(C)C)[C@H](C)NC(=O)[C@H]([C@@H](C)O)NC(=O)[C@H](CC(=O)O)NC1=O [Compound 499] | 41 nM |  | 
6 | CC(C)C[C@@H]1NC(=O)c2ccc(-c3ccc(N4CCN(C(=O)C[C@@H](N)C(=O)N5CCN(c6ccc(-c7ccc8cc7CNC(=O)[C@@H]7CCCN7[C@H](C(=O)NC(C)(C)C)[C@H](C)NC(=O)[C@H]([C@@H](C)O)NC(=O)[C@H](CC(=O)O)NC(=O)[C@H](CC(C)C)NC8=O)cc6)CC5)CC4)cc3)c(c2)CNC(=O)[C@@H]2CCCN2[C@H](C(=O)NC(C)(C)C)[C@H](C)NC(=O)[C@H]([C@@H](C)O)NC(=O)[C@H](CC(=O)O)NC1=O [Compound 493] | 94 nM |  | 
7 | CC(C)C[C@@H]1NC(=O)c2ccc(-c3ccc(N4CCN(C(=O)C56CC7CC(C5)CC(C(=O)N5CCN(c8ccc(-c9ccc%10cc9CNC(=O)[C@@H]9CCCN9[C@H](C(=O)NC(C)(C)C)[C@H](C)NC(=O)[C@H]([C@@H](C)O)NC(=O)[C@H](CC(=O)O)NC(=O)[C@H](CC(C)C)NC%10=O)cc8)CC5)(C7)C6)CC4)cc3)c(c2)CNC(=O)[C@@H]2CCCN2[C@H](C(=O)NC(C)(C)C)[C@H](C)NC(=O)[C@H]([C@@H](C)O)NC(=O)[C@H](CC(=O)O)NC1=O [Compound 460] | 107 nM |  | 
8 | CC(C)C[C@@H]1NC(=O)c2ccc(-c3ccc(N4CCN(C(=O)C5(C(=O)N6CCN(c7ccc(-c8ccc9cc8CNC(=O)[C@@H]8CCCN8[C@H](C(=O)NC(C)(C)C)[C@H](C)NC(=O)[C@H]([C@@H](C)O)NC(=O)[C@H](CC(=O)O)NC(=O)[C@H](CC(C)C)NC9=O)cc7)CC6)Cc6ccccc6C5)CC4)cc3)c(c2)CNC(=O)[C@@H]2CCCN2[C@H](C(=O)NC(C)(C)C)[C@H](C)NC(=O)[C@H]([C@@H](C)O)NC(=O)[C@H](CC(=O)O)NC1=O [Compound 461] | 93 nM |  | 
9 | CC(C)C[C@@H]1NC(=O)C[C@H](CCCCN)N(C)C(=O)[C@H](CCCCN)NC(=O)[C@@H]2CCCN2[C@H](C(=O)NC(C)(C)C)[C@H](C)NC(=O)[C@H]([C@@H](C)O)NC(=O)[C@H](CC(=O)O)NC1=O [Compound 456] |  | 15% | 1000 nM
10 | CC(C)C[C@@H]1NC(=O)c2ccc(-c3ccc(N4CCN(C(=O)CCOCCOCCOCCOCCOCCOCCOCCOCCOCCOCCC(=O)N5CCN(c6ccc(-c7ccc8cc7CNC(=O)[C@@H]7CCCN7[C@H](C(=O)NC(C)(C)C)[C@H](C)NC(=O)[C@H]([C@@H](C)O)NC(=O)[C@H](CC(=O)O)NC(=O)[C@H](CC(C)C)NC8=O)cc6)CC5)CC4)cc3)c(c2)CNC(=O)[C@@H]2CCCN2[C@H](C(=O)NC(C)(C)C)[C@H](C)NC(=O)[C@H]([C@@H](C)O)NC(=O)[C@H](CC(=O)O)NC1=O [Compound 511] | 182 nM |  | 
